Data taken from the supplement of paper PMC8612539.
≈ marks a conversion by molar mass, not a printed value.

Test system: Histophilus somni
Experiment: minimum inhibitory concentration (MIC)
Experimental: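 Broth microdilution MIC (Sensititre BOPO7F bovine plate, CLSI methods) of 19 antimicrobials against field isolates of P. multocida, M. haemolytica, H. somni (deep nasopharyngeal swabs) and E. coli, Enterococcus spp. (rectal swabs) from weaned dairy heifers. Incubation 16-24 h at 35 C. MIC is the lowest concentration preventing visible growth. Values with <= or > lie at the tested range limits. Trimethoprim-sulfamethoxazole is given as the trimethoprim component of a 1:19 mixture.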

NC[C@@H]1O[C@H](O[C@H]2[C@@H](O)[C@H](O[C@@H]3[C@@H](O)[C@H](N)C[C@H](N)[C@H]3O[C@H]3O[C@H](CN)[C@@H](O)[C@H](O)[C@H]3N)O[C@@H]2CO)[C@H](N)[C@@H](O)[C@@H]1O [Neomycin]
Conditions | minimum inhibitory concentration [µg/mL]
isolate (source animal id): 3 | 32 (≈ 52.1 µM)
isolate (source animal id): 4 | 32 (≈ 52.1 µM)
isolate (source animal id): 7 | 16 (≈ 26 µM)
isolate (source animal id): 14 | 16 (≈ 26 µM)
isolate (source animal id): 15 | 32 (≈ 52.1 µM)
isolate (source animal id): 17 | 16 (≈ 26 µM)
isolate (source animal id): 18 | 32 (≈ 52.1 µM)
isolate (source animal id): 20 | ≤ 4
isolate (source animal id): 23 | 32 (≈ 52.1 µM)
isolate (source animal id): 45 | 32 (≈ 52.1 µM)
isolate (source animal id): 53 | 32 (≈ 52.1 µM)
isolate (source animal id): 83 | 32 (≈ 52.1 µM)
isolate (source animal id): 88 | 32 (≈ 52.1 µM)
isolate (source animal id): 92 | > 32
isolate (source animal id): 93 | 8 (≈ 13 µM)
isolate (source animal id): 99 | > 32
isolate (source animal id): 100 | > 32
isolate (source animal id): 105 | 32 (≈ 52.1 µM)
isolate (source animal id): 107 | > 32
isolate (source animal id): 108 | > 32
isolate (source animal id): 109 | > 32
isolate (source animal id): 110 | > 32
isolate (source animal id): 117 | 16 (≈ 26 µM)
isolate (source animal id): 121 | 16 (≈ 26 µM)
isolate (source animal id): 123 | 32 (≈ 52.1 µM)
isolate (source animal id): 124 | 32 (≈ 52.1 µM)
isolate (source animal id): 127 | 32 (≈ 52.1 µM)
isolate (source animal id): 128 | 16 (≈ 26 µM)
isolate (source animal id): 130 | 16 (≈ 26 µM)
isolate (source animal id): 132 | 16 (≈ 26 µM)
isolate (source animal id): 135 | 16 (≈ 26 µM)
isolate (source animal id): 140 | 16 (≈ 26 µM)
isolate (source animal id): 141 | 16 (≈ 26 µM)
isolate (source animal id): 142 | > 32
isolate (source animal id): 144 | > 32
isolate (source animal id): 146 | > 32
isolate (source animal id): 147 | > 32
isolate (source animal id): 151 | 32 (≈ 52.1 µM)
isolate (source animal id): 153 | > 32
isolate (source animal id): 154 | > 32
isolate (source animal id): 156 | 32 (≈ 52.1 µM)
isolate (source animal id): 157 | > 32
isolate (source animal id): 176 | 32 (≈ 52.1 µM)
isolate (source animal id): 183 | 32 (≈ 52.1 µM)
isolate (source animal id): 186 | > 32
isolate (source animal id): 196 | > 32
isolate (source animal id): 198 | > 32
isolate (source animal id): 200 | > 32
isolate (source animal id): 206 | > 32
isolate (source animal id): 208 | > 32
isolate (source animal id): 210 | > 32
isolate (source animal id): 212 | 32 (≈ 52.1 µM)
isolate (source animal id): 215 | > 32
isolate (source animal id): 216 | > 32
isolate (source animal id): 218 | > 32
isolate (source animal id): 219 | > 32
isolate (source animal id): 224 | > 32
isolate (source animal id): 228 | 32 (≈ 52.1 µM)
isolate (source animal id): 230 | 32 (≈ 52.1 µM)
isolate (source animal id): 233 | > 32
isolate (source animal id): 238 | 16 (≈ 26 µM)
isolate (source animal id): 239 | 32 (≈ 52.1 µM)
isolate (source animal id): 241 | 32 (≈ 52.1 µM)
isolate (source animal id): 242 | 32 (≈ 52.1 µM)
isolate (source animal id): 243 | 32 (≈ 52.1 µM)
isolate (source animal id): 245 | > 32
isolate (source animal id): 246 | 32 (≈ 52.1 µM)
isolate (source animal id): 247 | 32 (≈ 52.1 µM)
isolate (source animal id): 248 | ≤ 4
isolate (source animal id): 250 | 32 (≈ 52.1 µM)
isolate (source animal id): 251 | 32 (≈ 52.1 µM)
isolate (source animal id): 252 | 32 (≈ 52.1 µM)
isolate (source animal id): 254 | 32 (≈ 52.1 µM)
isolate (source animal id): 258 | > 32
isolate (source animal id): 259 | > 32
isolate (source animal id): 262 | 32 (≈ 52.1 µM)
isolate (source animal id): 264 | 8 (≈ 13 µM)
isolate (source animal id): 265 | > 32
isolate (source animal id): 266 | > 32
isolate (source animal id): 267 | > 32
isolate (source animal id): 269 | > 32
isolate (source animal id): 271 | > 32
isolate (source animal id): 272 | > 32
isolate (source animal id): 274 | 32 (≈ 52.1 µM)
isolate (source animal id): 276 | ≤ 4
isolate (source animal id): 278 | > 32
isolate (source animal id): 280 | > 32
isolate (source animal id): 281 | > 32
isolate (source animal id): 283 | > 32
isolate (source animal id): 288 | > 32
isolate (source animal id): 291 | 32 (≈ 52.1 µM)
isolate (source animal id): 292 | > 32
isolate (source animal id): 296 | > 32
isolate (source animal id): 306 | > 32
isolate (source animal id): 336 | > 32
isolate (source animal id): 337 | > 32
isolate (source animal id): 341 | > 32

CC1(C)S[C@@H]2[C@H](NC(=O)Cc3ccccc3)C(=O)N2[C@H]1C(=O)O [Penicillin]
Conditions | minimum inhibitory concentration [µg/mL]
isolate (source animal id): 3 | ≤ 0.12
isolate (source animal id): 4 | ≤ 0.12
isolate (source animal id): 7 | ≤ 0.12
isolate (source animal id): 14 | ≤ 0.12
isolate (source animal id): 15 | 0.25 (≈ 0.748 µM)
isolate (source animal id): 17 | ≤ 0.12
isolate (source animal id): 18 | ≤ 0.12
isolate (source animal id): 20 | ≤ 0.12
isolate (source animal id): 23 | ≤ 0.12
isolate (source animal id): 45 | ≤ 0.12
isolate (source animal id): 53 | ≤ 0.12
isolate (source animal id): 83 | ≤ 0.12
isolate (source animal id): 88 | ≤ 0.12
isolate (source animal id): 92 | ≤ 0.12
isolate (source animal id): 93 | ≤ 0.12
isolate (source animal id): 99 | ≤ 0.12
isolate (source animal id): 100 | ≤ 0.12
isolate (source animal id): 105 | ≤ 0.12
isolate (source animal id): 107 | ≤ 0.12
isolate (source animal id): 108 | ≤ 0.12
isolate (source animal id): 109 | ≤ 0.12
isolate (source animal id): 110 | ≤ 0.12
isolate (source animal id): 117 | ≤ 0.12
isolate (source animal id): 121 | ≤ 0.12
isolate (source animal id): 123 | ≤ 0.12
isolate (source animal id): 124 | ≤ 0.12
isolate (source animal id): 127 | ≤ 0.12
isolate (source animal id): 128 | ≤ 0.12
isolate (source animal id): 130 | ≤ 0.12
isolate (source animal id): 132 | ≤ 0.12
isolate (source animal id): 135 | ≤ 0.12
isolate (source animal id): 140 | ≤ 0.12
isolate (source animal id): 141 | ≤ 0.12
isolate (source animal id): 142 | ≤ 0.12
isolate (source animal id): 144 | ≤ 0.12
isolate (source animal id): 146 | ≤ 0.12
isolate (source animal id): 147 | ≤ 0.12
isolate (source animal id): 151 | ≤ 0.12
isolate (source animal id): 153 | ≤ 0.12
isolate (source animal id): 154 | ≤ 0.12
isolate (source animal id): 156 | ≤ 0.12
isolate (source animal id): 157 | ≤ 0.12
isolate (source animal id): 176 | ≤ 0.12
isolate (source animal id): 183 | ≤ 0.12
isolate (source animal id): 186 | ≤ 0.12
isolate (source animal id): 196 | ≤ 0.12
isolate (source animal id): 198 | ≤ 0.12
isolate (source animal id): 200 | ≤ 0.12
isolate (source animal id): 206 | ≤ 0.12
isolate (source animal id): 208 | ≤ 0.12
isolate (source animal id): 210 | ≤ 0.12
isolate (source animal id): 212 | ≤ 0.12
isolate (source animal id): 215 | ≤ 0.12
isolate (source animal id): 216 | ≤ 0.12
isolate (source animal id): 218 | ≤ 0.12
isolate (source animal id): 219 | ≤ 0.12
isolate (source animal id): 224 | ≤ 0.12
isolate (source animal id): 228 | ≤ 0.12
isolate (source animal id): 230 | ≤ 0.12
isolate (source animal id): 233 | ≤ 0.12
isolate (source animal id): 238 | ≤ 0.12
isolate (source animal id): 239 | ≤ 0.12
isolate (source animal id): 241 | ≤ 0.12
isolate (source animal id): 242 | ≤ 0.12
isolate (source animal id): 243 | ≤ 0.12
isolate (source animal id): 245 | 0.25 (≈ 0.748 µM)
isolate (source animal id): 246 | ≤ 0.12
isolate (source animal id): 247 | ≤ 0.12
isolate (source animal id): 248 | ≤ 0.12
isolate (source animal id): 250 | ≤ 0.12
isolate (source animal id): 251 | ≤ 0.12
isolate (source animal id): 252 | ≤ 0.12
isolate (source animal id): 254 | 0.25 (≈ 0.748 µM)
isolate (source animal id): 258 | ≤ 0.12
isolate (source animal id): 259 | ≤ 0.12
isolate (source animal id): 262 | ≤ 0.12
isolate (source animal id): 264 | ≤ 0.12
isolate (source animal id): 265 | 8 (≈ 23.9 µM)
isolate (source animal id): 266 | ≤ 0.12
isolate (source animal id): 267 | ≤ 0.12
isolate (source animal id): 269 | ≤ 0.12
isolate (source animal id): 271 | ≤ 0.12
isolate (source animal id): 272 | 8 (≈ 23.9 µM)
isolate (source animal id): 274 | ≤ 0.12
isolate (source animal id): 276 | ≤ 0.12
isolate (source animal id): 278 | ≤ 0.12
isolate (source animal id): 280 | 0.5 (≈ 1.5 µM)
isolate (source animal id): 281 | ≤ 0.12
isolate (source animal id): 283 | 0.25 (≈ 0.748 µM)
isolate (source animal id): 288 | ≤ 0.12
isolate (source animal id): 291 | ≤ 0.12
isolate (source animal id): 292 | ≤ 0.12
isolate (source animal id): 296 | ≤ 0.12
isolate (source animal id): 306 | ≤ 0.12
isolate (source animal id): 336 | ≤ 0.12
isolate (source animal id): 337 | ≤ 0.12
isolate (source animal id): 341 | ≤ 0.12
